Measurements taken from PMC9823097, “Dysregulation of PRMT5 in chronic lymphocytic leukemia promotes progression with high risk of Richter’s transformation” (Nature Communications, 2023).

Assays:
[1] = system: Mec-1 CLL cell line; assay: Global symmetric dimethyl arginine (SDMA) western blot, Mec-1; assay type: cell-based; conditions: Mec-1, 72 h treatment
Excerpt: Proteins extracted from whole-cell lysates were resolved by SDS-PAGE and transferred on nitrocellulose membrane as previously described. CpG685 oligonucleotide was obtained from the OSU Cytogenetics Core Lab. Antibodies used for immunoblots included anti-human PRMT5 (Abcam #ab109451), GAPDH (Millipore Sigma #MAB374), SDMA (Cell Signaling Technology #13222), c-Myc (Cell Signaling Technology #5605S), and β-Actin (Cell Signaling Technology #4967S). Cas9-mediated doxycycline-inducible knockout of PRMT5 utilized a targeted sgRNA (guide sequence: […], PAM: GGG).

[2] = system: HG3 cells; assay: Cell growth curves over 12 days, HG3; assay type: cell-based
Experimental: Live cells/mL were counted on days 3, 6, 10, and 12. […] The split factor was calculated at indicated time points by dividing the counted cells/mL by 3E5. Cell growth was extrapolated over time by multiplying the subsequent cell count by the previous split factor. Cell growth is plotted as fold change relative to DMSO-treated cells.

[3] = target: recombinant human PRMT5/MEP50 (Homo sapiens, UniProt O14744); assay: Filtration binding assay with recombinant human PRMT5/MEP50 (biochemical potency)
Experimental: For biochemical potency and selectivity, PRT382 was solubilized in 100% DMSO and diluted serially threefold. […] Standard reactions were performed in a total volume of 30 μl in assay buffer, with 300 nM histone H4-based AcH4-23 (Anaspec: AS-65002) as substrate. To this was added the PRMT5/MEP50 complex diluted to provide a final assay concentration of 2.5 nM, and the compounds were allowed to preincubate for 20 min at 37 °C. The reaction was initiated by adding S-[3 H-methyl]-adenosyl-L-methionine (PerkinElmer: NET155001MC) to a final concentration of 1 μM. Following a 30 min of incubation at 37 °C, the reaction was stopped by adding 25 μL of 8 M Guanidine HCl. To each reaction, 150 µL of SPA beads suspension (Perkinelmer: RPNQ0012) was added and incubated while shaking at room temperature for 30 min. The plate was centrifuged at 100 xg for 30 s before reading in a scintillation counter. IC50 values were determined by fitting the data to with Hill Slope using GraphPad Prism software (v9.2.0).

[4] = HG3, continuous exposure over 12 days

Chain of recombinant human PRMT5/MEP50 (O14744 whole entry): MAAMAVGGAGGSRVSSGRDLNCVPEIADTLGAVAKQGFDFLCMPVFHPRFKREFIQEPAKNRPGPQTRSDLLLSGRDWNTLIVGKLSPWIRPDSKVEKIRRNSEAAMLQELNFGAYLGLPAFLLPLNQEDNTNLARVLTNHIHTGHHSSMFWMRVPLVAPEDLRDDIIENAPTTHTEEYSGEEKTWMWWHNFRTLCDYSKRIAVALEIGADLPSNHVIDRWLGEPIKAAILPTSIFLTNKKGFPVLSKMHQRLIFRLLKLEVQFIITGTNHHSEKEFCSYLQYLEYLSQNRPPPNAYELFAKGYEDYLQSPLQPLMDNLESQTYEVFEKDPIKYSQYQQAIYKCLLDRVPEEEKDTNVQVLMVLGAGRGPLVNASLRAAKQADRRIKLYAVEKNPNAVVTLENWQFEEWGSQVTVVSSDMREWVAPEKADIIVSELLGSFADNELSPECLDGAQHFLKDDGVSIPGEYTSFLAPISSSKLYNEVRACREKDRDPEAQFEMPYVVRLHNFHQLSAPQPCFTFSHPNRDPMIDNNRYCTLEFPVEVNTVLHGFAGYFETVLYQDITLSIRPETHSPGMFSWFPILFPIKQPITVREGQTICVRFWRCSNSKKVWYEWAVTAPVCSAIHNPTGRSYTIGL
Chain of recombinant human PRMT5/MEP50 (Q9BQA1 whole entry partner): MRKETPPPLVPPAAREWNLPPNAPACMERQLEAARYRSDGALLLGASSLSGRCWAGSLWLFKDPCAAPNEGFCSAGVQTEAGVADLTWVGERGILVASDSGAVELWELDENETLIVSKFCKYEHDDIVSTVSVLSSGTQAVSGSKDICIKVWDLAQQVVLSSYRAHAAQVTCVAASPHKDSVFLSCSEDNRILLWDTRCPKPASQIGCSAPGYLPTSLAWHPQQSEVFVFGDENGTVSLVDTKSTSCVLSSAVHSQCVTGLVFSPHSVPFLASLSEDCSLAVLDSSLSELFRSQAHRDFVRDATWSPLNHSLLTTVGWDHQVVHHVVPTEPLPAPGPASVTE

## CON=c1nc[nH]c2c1ccn2[C@@H]1O[C@H]([C@H](O)c2ccc(Cl)c(Cl)c2)[C@@H](O)[C@H]1O.Cl [PRT382, (2 R,3 S,4 R,5 R)-2-[(R)-(3,4-dichlorophenyl)-hydroxy-methyl]-5-[(4Z)-4-methoxyimino-1H-pyrrolo[2,3-d]pyrimidin-7-yl]tetrahydrofuran-3,4-diol hydrochloride]
[1]
  lowest dose with decrease in global SDMA residues: 100 nM
[2]; HG3
  anti-proliferative potency compared to JNJ-64619178, LLY-283, and PF-06855800: similar-to-reduced
[2]; HG3, 1 nM, day 0
  Rep 1 Live Cells [Fold Change]: 1 Fold Change
  Rep 2 Live Cells [Fold Change]: 1 Fold Change
  Rep 3 Live Cells [Fold Change]: 1 Fold Change
[2]; HG3, 1 nM, day 3
  Rep 1 Live Cells [Fold Change]: 5.95 Fold Change
  Rep 2 Live Cells [Fold Change]: 7.45 Fold Change
  Rep 3 Live Cells [Fold Change]: 5.95 Fold Change
[2]; HG3, 1 nM, day 6
  Rep 1 Live Cells [Fold Change]: 46.5092 Fold Change
  Rep 2 Live Cells [Fold Change]: 44.5758 Fold Change
  Rep 3 Live Cells [Fold Change]: 27.1717 Fold Change
[2]; HG3, 1 nM, day 10
  Rep 1 Live Cells [Fold Change]: 425.559 Fold Change
  Rep 2 Live Cells [Fold Change]: 463.589 Fold Change
  Rep 3 Live Cells [Fold Change]: 237.752 Fold Change
[2]; HG3, 1 nM, day 12
  Rep 1 Live Cells [Fold Change]: 1418.53 Fold Change
  Rep 2 Live Cells [Fold Change]: 1486.57 Fold Change
  Rep 3 Live Cells [Fold Change]: 1077.81 Fold Change
[2]; HG3, 10 nM, day 0
  Rep 1 Live Cells [Fold Change]: 1 Fold Change
  Rep 2 Live Cells [Fold Change]: 1 Fold Change
  Rep 3 Live Cells [Fold Change]: 1 Fold Change
[2]; HG3, 10 nM, day 3
  Rep 1 Live Cells [Fold Change]: 6.983 Fold Change
  Rep 2 Live Cells [Fold Change]: 6.833 Fold Change
  Rep 3 Live Cells [Fold Change]: 6.567 Fold Change
[2]; HG3, 10 nM, day 6
  Rep 1 Live Cells [Fold Change]: 48.6506 Fold Change
  Rep 2 Live Cells [Fold Change]: 58.5389 Fold Change
  Rep 3 Live Cells [Fold Change]: 42.7928 Fold Change
[2]; HG3, 10 nM, day 10
  Rep 1 Live Cells [Fold Change]: 471.91 Fold Change
  Rep 2 Live Cells [Fold Change]: 680.515 Fold Change
  Rep 3 Live Cells [Fold Change]: 419.369 Fold Change
[2]; HG3, 10 nM, day 12
  Rep 1 Live Cells [Fold Change]: 1691.01 Fold Change
  Rep 2 Live Cells [Fold Change]: 2381.8 Fold Change
  Rep 3 Live Cells [Fold Change]: 2411.37 Fold Change
[2]; HG3, 100 nM, day 0
  Rep 1 Live Cells [Fold Change]: 1 Fold Change
  Rep 2 Live Cells [Fold Change]: 1 Fold Change
  Rep 3 Live Cells [Fold Change]: 1 Fold Change
[2]; HG3, 100 nM, day 3
  Rep 1 Live Cells [Fold Change]: 3.433 Fold Change
  Rep 2 Live Cells [Fold Change]: 6.117 Fold Change
  Rep 3 Live Cells [Fold Change]: 4.417 Fold Change
[2]; HG3, 100 nM, day 6
  Rep 1 Live Cells [Fold Change]: 12.7033 Fold Change
  Rep 2 Live Cells [Fold Change]: 20.7661 Fold Change
  Rep 3 Live Cells [Fold Change]: 13.7726 Fold Change
[2]; HG3, 100 nM, day 10
  Rep 1 Live Cells [Fold Change]: 31.282 Fold Change
  Rep 2 Live Cells [Fold Change]: 112.137 Fold Change
  Rep 3 Live Cells [Fold Change]: 30.472 Fold Change
[2]; HG3, 100 nM, day 12
  Rep 1 Live Cells [Fold Change]: 66.0571 Fold Change
  Rep 2 Live Cells [Fold Change]: 233.431 Fold Change
  Rep 3 Live Cells [Fold Change]: 63.4325 Fold Change
[2]; HG3, 1 µM, day 0
  Rep 1 Live Cells [Fold Change]: 1 Fold Change
  Rep 2 Live Cells [Fold Change]: 1 Fold Change
  Rep 3 Live Cells [Fold Change]: 1 Fold Change
[2]; HG3, 1 µM, day 3
  Rep 1 Live Cells [Fold Change]: 3.05 Fold Change
  Rep 2 Live Cells [Fold Change]: 6.15 Fold Change
  Rep 3 Live Cells [Fold Change]: 3.933 Fold Change
[2]; HG3, 1 µM, day 6
  Rep 1 Live Cells [Fold Change]: 3.162 Fold Change
  Rep 2 Live Cells [Fold Change]: 4.9815 Fold Change
  Rep 3 Live Cells [Fold Change]: 4.615 Fold Change
[2]; HG3, 1 µM, day 10
  Rep 1 Live Cells [Fold Change]: 2.64 Fold Change
  Rep 2 Live Cells [Fold Change]: 3.873 Fold Change
  Rep 3 Live Cells [Fold Change]: 1.218 Fold Change
[2]; HG3, 1 µM, day 12
  Rep 1 Live Cells [Fold Change]: 1.11 Fold Change
  Rep 2 Live Cells [Fold Change]: 5.3136 Fold Change
  Rep 3 Live Cells [Fold Change]: 0.1619 Fold Change
[2]; [4]
  dose at which growth inhibition begins: 100 nM
  effect on growth potential (cell growth): time and dose-dependent growth inhibition
[3]; 508.1 pM
  PRT382 dose-response signal (Figure 6C; DMSO = 100.515): 76.3419
[3]; 1.52416e-9 M
  PRT382 dose-response signal (Figure 6C; DMSO = 100.515): 63.1814
[3]; 4.57247e-9 M
  PRT382 dose-response signal (Figure 6C; DMSO = 100.515): 38.5693
[3]; 1.37174e-8 M
  PRT382 dose-response signal (Figure 6C; DMSO = 100.515): 22.7886
[3]; 4.11523e-8 M
  PRT382 dose-response signal (Figure 6C; DMSO = 100.515): 12.7118
[3]; 1.23457e-7 M
  PRT382 dose-response signal (Figure 6C; DMSO = 100.515): 6.679
[3]; 3.7037e-7 M
  PRT382 dose-response signal (Figure 6C; DMSO = 100.515): 2.863
[3]; 1.11111e-6 M
  PRT382 dose-response signal (Figure 6C; DMSO = 100.515): 1.261
[3]; 3.33333e-6 M
  PRT382 dose-response signal (Figure 6C; DMSO = 100.515): 0.4291
[3]; 1e-5 M
  PRT382 dose-response signal (Figure 6C; DMSO = 100.515): 0.1164
